The values below come from article PMC9271048, “Probing strigolactone perception mechanisms with rationally designed small-molecule agonists stimulating germination of root parasitic weeds” (Nature Communications, 2022).

In one assay the test system is ShHTL7S95A. In words: Hydrolysis reaction analysis with ShHTL7 S95A mutant. The format is biochemical, Striga hermonthica. Conditions: Supplementary Figs. 20a, 24a. As to the method:
Compounds 4a, (R)- and (S)-4a, 4g-i, and rac-GR24 were dissolved in DMSO and prepared as stock solution ([…]) just before use. A 200 μL of the reaction solution consisting of PBS buffer (pH 7.3), 10 μM samples, and 10 μg recombinant ShHTL7 or its mutants was incubated at 30 °C for 30 min; with the reaction solution (200 μL) containing PBS buffer (pH 7.3) and 10 μM samples as the blank control[40],[52]. Subsequently, the reaction was terminated by adding 200 μL of methanol, and then the reaction mixture was shaken for 10 s and centrifuged at 5310 × g for 60 s. The supernatant was filtered and the remaining amount of samples was analyzed by HPLC. The relative percentages of hydrolysis were obtained by using the amount of compounds in blank control as reference.
Supplementary Fig. 20. Effect of key amino acid residues on the hydrolysis of ShHTL7 and binding affinity. a, Relative percentage of hydrolysis of compound (S)-4a by ShHTL7S95A, ShHTL7H246A, and ShHTL7. The error bar indicates SD (n = 3 biologically independent experiments). b, Competitive mutants of ShHTL7 inhibitory activity in YLG assay. Data are the means ± SD (n = 3 biologically independent experiments).
(1 picture or pasted object on this page, not shown here) […]

The test system of the next assay is Striga hermonthica seeds. In words: S. hermonthica seed germination assay. Format: in vivo. To be noted: source data of Fig. 2d, average of 2 or 3; for EC50: Striga hermonthica, 48 h. How it is done: Two hundred mg of Striga hermonthica seeds were surface sterilized in 2% sodium hypochlorite containing 0.02% Tween-20 for 5 min, and then washed five times with sterile MilliQ water. The sterilized Striga seeds were spread on sterile glass fiber-filter papers (Whatman® GF/A, Sigma–Aldrich) in Petri dishes containing filter paper moistened with 3 mL sterile MilliQ water. The Petri dishes were incubated 6–8 days at 30 °C for preconditioning after which the seeds were dried in a laminar sterile air flow for 2 h. The germination bioassay was performed in 0.1% agarose and 0.1 ppm rac-GR24 was used as a positive control. Stocks of rac-GR24 and other compounds were prepared in acetone and diluted before use. Dried preconditioned seeds were added to the agarose containing the relevant compound, which was subsequently divided over three wells of a 12-well Cell Culture Treated Plates (Fisher Scientific, Landsmeer, the Netherlands). The plates were sealed and incubated in the dark at 30 °C for 2 days. The Striga germination rate in % (GR%) was calculated for each replicate using the formula: GR% = (Ngs/Nts) × 100, where Ngs is the number of germinated seeds per well and Nts is the total number of seeds per well. EC50 values of the compounds were calculated using http://www.ic50.tk/index.html.

The next assay concerns the target ShHTL7 L161A (Striga hermonthica, UniProt A0A0M3PNA2, L161A). Description: YLG competitive inhibition, ShHTL7 mutant L161A. The format is biochemical. The source says:
(§1) To clarify the dynamics of how the catalytic triad affects hydrolysis by ShHTL7, we performed MD simulations to study the differences between (R)-4a and (S)-4a (Supplementary Fig. 21). […] To further characterize our computational models, we performed mutation studies of the key residues in the active pockets that may have interactions with our molecules. Indeed, a number of the mutations of specific residues altered the IC50 values, supporting our simulated models (Supplementary Fig. 20b).
(§2) The excitation and emission wavelengths of YLG are 480 and 520 nm, respectively. We used a fluorescence spectrophotometer (CARY Eclipse) to detect the fluorescence intensity change of YLG during the enzymatic hydrolysis assay process. All the testing compounds and YLG were dissolved in DMSO and prepared as stock solutions just before use. […] The changes of fluorescence at 520 nm of each well were recorded every 1 min for 30 min. Using the reaction mixture without adding enzyme and tested compounds as the background control. After subtracting the background hydrolysis, a linear fluorescence increase in 8 min was used for further inspection. The IC50 values were determined via fitting relative inhibition percentages with the varying concentrations of compounds in Microsoft Excel.
(§3) Supplementary Fig. 20. […]

The target of another assay is ShHTL7 F134K (Striga hermonthica, UniProt A0A0M3PNA2, F134K). Description: YLG competitive inhibition, ShHTL7 mutant F134K. The format is biochemical.
Text: as §1, §2, §3

Another assay concerns the target ShHTL7 F134A (Striga hermonthica, UniProt A0A0M3PNA2, F134A). In words: YLG competitive inhibition, ShHTL7 mutant F134A. Format: biochemical.
Text: as §1, §2, §3

The target of the next assay is ShHTL7 M219A (Striga hermonthica, UniProt A0A0M3PNA2, M219A). In words: YLG competitive inhibition, ShHTL7 mutant M219A. The format is biochemical.
Text: as §1, §2, §3

A further assay concerns the target ShHTL7 T157A (Striga hermonthica, UniProt A0A0M3PNA2, T157A). Description: YLG competitive inhibition, ShHTL7 mutant T157A. The format is biochemical.
Text: as §1, §2, §3

In a further assay the target is ShHTL7 Y26F (Striga hermonthica, UniProt A0A0M3PNA2, Y26F). In words: YLG competitive inhibition, ShHTL7 mutant Y26F. Format: biochemical.
Text: as §1, §2, §3

For another assay, the target named is ShHTL7 T157Y (Striga hermonthica, UniProt A0A0M3PNA2, T157Y). In words: YLG competitive inhibition, ShHTL7 mutant T157Y. The format is biochemical.
Text: as §1, §2, §3

Molecules are shown by their SMILES.

ShHTL7 T157Y, sequence (A0A0M3PNA2 whole entry T157Y): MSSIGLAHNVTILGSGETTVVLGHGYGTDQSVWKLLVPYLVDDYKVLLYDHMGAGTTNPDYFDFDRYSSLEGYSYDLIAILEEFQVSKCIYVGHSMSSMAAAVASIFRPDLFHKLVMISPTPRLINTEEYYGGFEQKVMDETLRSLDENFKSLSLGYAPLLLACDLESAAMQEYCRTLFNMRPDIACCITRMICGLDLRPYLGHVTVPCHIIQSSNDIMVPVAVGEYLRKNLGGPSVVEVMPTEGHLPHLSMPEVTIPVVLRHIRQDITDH
ShHTL7 F134K, sequence (A0A0M3PNA2 whole entry F134K): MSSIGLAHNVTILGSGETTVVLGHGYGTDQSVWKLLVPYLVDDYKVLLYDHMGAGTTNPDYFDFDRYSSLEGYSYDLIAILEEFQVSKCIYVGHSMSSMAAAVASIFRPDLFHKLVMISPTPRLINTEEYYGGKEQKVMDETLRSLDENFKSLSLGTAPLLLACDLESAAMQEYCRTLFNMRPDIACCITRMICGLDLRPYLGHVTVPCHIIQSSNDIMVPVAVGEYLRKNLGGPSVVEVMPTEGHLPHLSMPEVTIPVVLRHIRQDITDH
ShHTL7 Y26F, sequence (A0A0M3PNA2 whole entry Y26F): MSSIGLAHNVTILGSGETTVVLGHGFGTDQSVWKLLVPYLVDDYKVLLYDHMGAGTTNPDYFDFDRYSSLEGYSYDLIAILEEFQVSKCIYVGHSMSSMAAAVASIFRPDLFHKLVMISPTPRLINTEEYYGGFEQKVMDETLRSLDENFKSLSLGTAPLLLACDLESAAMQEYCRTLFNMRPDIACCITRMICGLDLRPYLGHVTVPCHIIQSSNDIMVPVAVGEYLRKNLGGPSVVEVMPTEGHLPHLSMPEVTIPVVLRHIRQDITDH
ShHTL7 T157A, sequence (A0A0M3PNA2 whole entry T157A): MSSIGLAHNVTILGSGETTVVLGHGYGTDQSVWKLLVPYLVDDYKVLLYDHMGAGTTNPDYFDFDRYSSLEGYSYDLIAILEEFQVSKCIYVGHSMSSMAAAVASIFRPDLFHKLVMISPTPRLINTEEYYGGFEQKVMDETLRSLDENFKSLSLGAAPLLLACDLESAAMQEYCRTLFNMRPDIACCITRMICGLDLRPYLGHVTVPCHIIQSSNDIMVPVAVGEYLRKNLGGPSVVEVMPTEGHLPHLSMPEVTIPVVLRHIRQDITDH
ShHTL7 F134A, sequence (A0A0M3PNA2 whole entry F134A): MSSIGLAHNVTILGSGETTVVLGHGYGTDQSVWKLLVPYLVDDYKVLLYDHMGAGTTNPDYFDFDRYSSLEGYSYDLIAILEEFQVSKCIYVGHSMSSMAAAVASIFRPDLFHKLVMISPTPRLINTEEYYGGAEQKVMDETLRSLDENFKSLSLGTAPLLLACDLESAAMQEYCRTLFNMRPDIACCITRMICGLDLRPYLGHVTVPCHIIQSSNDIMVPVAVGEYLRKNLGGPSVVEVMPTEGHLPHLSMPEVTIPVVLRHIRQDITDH
ShHTL7 M219A, sequence (A0A0M3PNA2 whole entry M219A): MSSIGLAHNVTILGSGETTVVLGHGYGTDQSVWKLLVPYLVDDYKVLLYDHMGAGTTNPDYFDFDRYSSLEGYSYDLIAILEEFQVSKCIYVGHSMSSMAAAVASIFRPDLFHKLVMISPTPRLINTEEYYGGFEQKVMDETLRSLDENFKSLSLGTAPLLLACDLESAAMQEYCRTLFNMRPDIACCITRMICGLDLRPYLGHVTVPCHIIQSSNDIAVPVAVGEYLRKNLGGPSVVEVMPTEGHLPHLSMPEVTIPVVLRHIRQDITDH
ShHTL7 L161A, sequence (A0A0M3PNA2 whole entry L161A): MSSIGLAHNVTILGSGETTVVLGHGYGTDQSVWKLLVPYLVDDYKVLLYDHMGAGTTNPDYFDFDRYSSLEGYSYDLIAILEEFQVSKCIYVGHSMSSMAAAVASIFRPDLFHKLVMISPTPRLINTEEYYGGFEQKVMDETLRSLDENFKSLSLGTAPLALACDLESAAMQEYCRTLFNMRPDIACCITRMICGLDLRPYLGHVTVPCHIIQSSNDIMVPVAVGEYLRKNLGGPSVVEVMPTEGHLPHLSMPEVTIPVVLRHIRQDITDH

Regarding `CC1=CC(OC(=O)N2CCN(C(=O)COc3ccc(Br)cc3C)CC2)CC1=O` (stereo not shown) [4g], in the assay on ShHTL7S95A, the “relative percentage of hydrolysis by ShHTL7S95A, source data average” value was 3.871%.

The term EC50 denotes the concentration at which the effect is half-maximal. The low end stands for a more potent agent, the high end for a less potent agent. In turn, `CC1=CC(OC(=O)N2CCN(C(=O)COc3ccc(Br)cc3C)CC2)OC1=O` (stereo not shown) [4a] showed an EC50 with Striga hermonthica seeds of 0.00107 nM.

In general, IC50 refers to the concentration needed to halve the response being measured. Low readings indicate inhibition by little substance, high ones a need for much substance. Regarding `CC1=C[C@@H](OC(=O)N2CCN(C(=O)COc3ccc(Br)cc3C)CC2)OC1=O` [(R)-4a], the IC50 was 100000 nM on ShHTL7 L161A; 62100 nM on ShHTL7 F134K; 58100 nM at ShHTL7 F134A; > 100000 nM at ShHTL7 M219A; 2610 nM on ShHTL7 T157A; 29900 nM at ShHTL7 Y26F. The IC50 on ShHTL7 T157Y was determined as 23300 nM. In the assay on Striga hermonthica seeds, this compound had an EC50 of 1.1 nM.

Take `CC1=C[C@H](O/C=C2/C(=O)O[C@@H]3c4ccccc4C[C@H]23)OC1=O` (racemic) [rac-GR24, reference compound]: the “S. hermonthica germination EC50 values, source data average” value with Striga hermonthica seeds was found to be 10.4655.

As for `CC1=C[C@H](OC(=O)N2CCN(C(=O)COc3ccc(Br)cc3C)CC2)OC1=O` [(S)-4a], the IC50 at ShHTL7 L161A is 155 nM; on ShHTL7 F134K, 613 nM; on ShHTL7 F134A, 531 nM; at ShHTL7 M219A, 6530 nM; on ShHTL7 T157A it was 170 nM; at ShHTL7 Y26F, 233 nM. On ShHTL7 T157Y, this compound yielded a 50% inhibitory concentration (IC50) of 949 nM. Also, the “relative percentage of hydrolysis by ShHTL7S95A, source data average” value with ShHTL7S95A was 1.485%.
